Values quoted from earlier work as cited in patent US20100076037A1, “Methods of Treating Neuropathic Pain with Agonists of PPAR-gamma” (priority 2006, published 2010).
Read-outs that look alike come from different tables or passages of the source.

Tests used:
PPARγ = PPARγ (Homo sapiens, UniProt P37231); conditions: second value of the pair printed as α/γ; read-out: EC50 for PPAR γ agonism; cited from earlier work
PPARalpha = biological target: T1, PPARalpha (Homo sapiens, UniProt Q07869); conditions: first value of the pair given as α/γ; read-out: EC50 for PPARalpha agonism; cited from earlier work
T1 sequence (Q07869 1-468): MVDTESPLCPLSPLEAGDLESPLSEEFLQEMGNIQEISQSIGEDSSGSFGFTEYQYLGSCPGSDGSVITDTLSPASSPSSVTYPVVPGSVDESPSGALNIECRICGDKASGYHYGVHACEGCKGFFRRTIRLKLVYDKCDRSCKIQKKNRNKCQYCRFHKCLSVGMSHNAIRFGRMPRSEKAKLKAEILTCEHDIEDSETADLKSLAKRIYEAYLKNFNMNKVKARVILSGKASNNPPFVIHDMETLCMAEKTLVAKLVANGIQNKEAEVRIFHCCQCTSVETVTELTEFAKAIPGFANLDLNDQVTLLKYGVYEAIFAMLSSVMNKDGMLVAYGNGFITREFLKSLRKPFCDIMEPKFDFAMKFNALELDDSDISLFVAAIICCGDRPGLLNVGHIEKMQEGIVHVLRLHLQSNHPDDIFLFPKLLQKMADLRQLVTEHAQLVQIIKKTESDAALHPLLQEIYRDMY

ob/ob mice = conditions: cited from earlier work
db/db mice = conditions: cited from earlier work
[1] = cited from earlier work
[2] = presence and absence of insulin; cited from earlier work

PPARγ, sequence (P37231 whole entry, species assumed): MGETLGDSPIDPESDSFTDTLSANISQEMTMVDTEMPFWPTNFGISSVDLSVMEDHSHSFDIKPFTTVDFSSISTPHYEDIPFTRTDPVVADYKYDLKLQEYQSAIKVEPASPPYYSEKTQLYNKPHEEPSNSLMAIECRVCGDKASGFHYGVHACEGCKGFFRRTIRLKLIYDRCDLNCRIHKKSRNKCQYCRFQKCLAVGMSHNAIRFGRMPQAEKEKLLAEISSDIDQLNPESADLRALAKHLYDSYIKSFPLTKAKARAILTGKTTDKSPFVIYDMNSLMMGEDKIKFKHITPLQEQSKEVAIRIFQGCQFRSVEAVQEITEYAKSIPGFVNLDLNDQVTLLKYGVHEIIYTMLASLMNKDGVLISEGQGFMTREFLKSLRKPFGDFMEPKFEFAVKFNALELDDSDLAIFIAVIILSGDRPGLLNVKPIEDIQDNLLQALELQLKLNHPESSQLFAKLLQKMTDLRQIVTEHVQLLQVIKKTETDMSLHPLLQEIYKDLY

SMILES	EC50 (PPARγ) [nM]	EC50 (PPARalpha) [nM]	reduction of AUC(glucose) (ob/ob mice; 1 mg/kg, 14 days) [%]	reduction in non-starved blood glucose concentration (ob/ob mice; 0.25 to 10 mg/kg, 12 days) [%]	serum insulin levels (ob/ob mice; all doses)	reduction in non-starved blood glucose concentration (ob/ob mice; higher doses) [%]	lowering of free fatty acid levels (db/db mice; 1 mg/kg) [%]	reduction in serum triglyceride levels (db/db mice; 1 mg/kg) [%]	lowering of free fatty acid levels (db/db mice; 10 mg/kg) [%]	reduction in serum triglyceride levels (db/db mice; 10-mg·kg dose) [%]	lowering of non-starved blood glucose (db/db mice; 25-mg dose, 12 days) [%]	hypoglycemia (db/db mice; chronic treatment with 100 mg/kg)	accumulation ([1]; once-daily dosing over 6 weeks)	tolerability ([1]; single ascending dose)	time to plasma peak levels after dosing ([1]; single doses 1-160 mg, healthy males) [h]	rate of glucose oxidation [2]
O=C1NC(=O)C(Cc2ccc3cc(OCc4ccccc4F)ccc3c2)S1 (stereo not shown) [MCC-555]	100	3000														
Cc1oc(-c2ccccc2)nc1CCOc1ccc(CC2SC(=O)NC2=O)c2sccc12 (stereo not shown) [edaglitazone]			44	29	dose-dependently decreased	45	16	14	70	70	52	did not result in hypoglycemia	did not accumulate	very well tolerated	2 to 4	increased
